Source: US6825363B2, “Compounds useful in optical switching and manufacturing method thereof” (Fuji Xerox Co., Ltd., priority 2002, dated 2004)
≈ marks a conversion by molar mass, not a printed value.

Assays:
Solubility in chloroform = format: physicochemical; conditions: organic solvent or mixture
Experimental: (§1) For the absorption characteristic of such compounds, absorption spectra were measured by use of a near infrared photospectrometer to confirm that they could be utilized as materials for the optical switch operating at a wavelength of 1.3 μm. Further, for the thermal stability, the thermal decomposition temperature was measured by thermogravimetry and differential thermal analysis to confirm that they were thermally stable materials for the optical switch. Further, their solubility in organic solvents such as chloroform and acetone was confirmed.

[1] = Thermal decomposition temperature by thermogravimetry and differential thermal analysis; format: physicochemical
Experimental: as §1

solubility (Solubility in chloroform) | decomposition temperature (thermal stability) [1] | SMILES
54 mg/mL (≈ 93.3 mM) | 202.7 °C | CC(C)CN(CC(C)C)c1cc(O)c2c(c1)OC(=O)/C2=C(/[O-])C1=C2C(O)=CC(=[N+](CC(C)C)CC(C)C)C=C2OC1=O [Compound (1)]
3 mg/mL (≈ 6.43 mM) | ≥ 200 °C | CCN(CC)c1cc(O)c2c(c1)OC(=O)/C2=C(/[O-])C1=C2C(O)=CC(=[N+](CC)CC)C=C2OC1=O [Compound (2)]
